In US20230109839A1, “THERAPEUTIC AGENT FOR TAUOPATHIES” (SUMITOMO PHARMA CO., LTD., priority 2020, published 2023):

target: T1, human Nav1.1 (Homo sapiens, UniProt P35498); experiment: Amplification of Nav1.1-derived voltage-gated sodium current (Nav1.1 current), automated patch clamp (Test 1); format: cell-based; conditions: Concentration for evaluation 1 μM; HEK293 cell line stably expressing human Nav1.1
T1 construct: host or cells: HEK293
Method in brief: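 HEK293 cells stably expressing human Nav1.1, restricted to cells with >500 pA current, were recorded by automated voltage-clamp patch clamp with a ramp voltage stimulus. Compounds were applied in HEPES-buffered extracellular solution with 1% DMSO. Amplification (%) = 100×(peak or AUC after/before compound)−100.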

| Compound | Nav1.1 current amplification rate (%) |
| --- | --- |
| CC1CC=C(c2ccc(=O)n(CC(=O)Nc3ccc4ncnn4n3)n2)CC1 (stereo not drawn) [Example 350] | 31% |
| CC1CC=C(c2ccc(=O)n(CC(=O)N3CCc4c3cccc4C(C)(C)O)n2)CC1 (stereo not drawn) [Example 277] | 210% |
| CC1CC=C(c2ccc(=O)n(CC(=O)N3CCc4c(CNC5CCC5)cccc43)n2)CC1 (stereo not drawn) [Example 315] | 19% |
| CC1CC=C(c2ccc(=O)n(CC(=O)Nc3ccc4cncn4c3)n2)CC1 (stereo not drawn) [Example 344] | 69% |
| CC1CC=C(c2ccc(=O)n(CC(=O)N3CCc4c3ccnc4C3=CCN(C)C3)n2)CC1 (stereo not drawn) [Example 283] | 15% |
| Cc1cc(NC(=O)Cn2ncc3ncc(N(C)C4CCCC4)nc32)cc2ncnn12 [Example 672] | 56% |
| CC(C1CCC1)N(C)c1cnc2cnn(CC(=O)Nc3ccn4ncnc4c3)c2n1 (stereo not drawn) [Example 634] | 13% |
| CC1CCN(c2ncc3cnn(CC(=O)Nc4ccn5ncnc5c4)c3n2)CC1(F)F (stereo not drawn) [Example 788] | 174% |
| CN(CCC1CC1)c1cnc2cnn(CC(=O)Nc3ccc4cncnc4c3)c2n1 [Example 647] | 165% |
| Cc1cn2ccc(NC(=O)Cn3ncc4ncc(N(C)C5CC5)nc43)cc2n1 [Example 703] | 27% |
| CC1CC=C(c2ccc(=O)n(CC(=O)Nc3cncc(C4=CCN(C)C4)c3)n2)CC1 (stereo not drawn) [Example 367] | 38% |
| CC(C)CN(C)c1cnc2cnn(CC(=O)Nc3ccc4ncnn4c3)c2n1 [Example 661] | 12% |
| Cc1ncc(-c2cncc(NC(=O)Cn3nc(C4=CCC(C)CC4)ccc3=O)c2)o1 (stereo not drawn) [Example 380] | 82% |
| CC1CC=C(c2ccc(=O)n(CC(=O)Nc3ccc4nccnc4c3)n2)CC1 (stereo not drawn) [Example 354] | 123% |
| CN(c1cnc2cnn(CC(=O)Nc3ccc4ccncc4n3)c2n1)C1CC1 [Example 724] | 28% |
| CC1CC=C(c2ccc(=O)n(CC(=O)Nc3ccc4ncncc4c3)n2)CC1 (stereo not drawn) [Example 355] | 130% |
| Cc1nccn1-c1ccc(NC(=O)Cn2ncc3ncc(N(C)C4CCCC4)nc32)cc1 [Example 681] | 26% |
| CN1CC(c2cccc3c2CCN3C(=O)Cn2ncc3ncc(N(C)C4CCC4)nc32)C1 [Example 698] | 18% |
| CN(CCC1CC1)c1ncc2cnn(CC(=O)Nc3ccn4ncnc4c3)c2n1 [Example 790] | 31% |
| CN(c1cnc2cnn(CC(=O)N3CCc4cc(N5CCOCC5)ccc43)c2n1)C1CC1 [Example 705] | 54% |
| CC1CC=C(c2ccc(=O)n(CC(=O)N3CCc4c(N5CCOCC5)cccc43)n2)CC1 (stereo not drawn) [Example 245] | 393% |
| COC1CN(Cc2cccc3c2CCN3C(=O)Cn2nc(C3=CCC(C)CC3)ccc2=O)C1 (stereo not drawn) [Example 274] | 60% |
| O=C(Cn1ncc2cnc(-c3ccc(C(F)(F)F)s3)nc21)Nc1ccn2ncnc2c1 [Example 779] | 44% |

same assay, conditions: Concentration for evaluation 3 μM; HEK293 cell line stably expressing human Nav1.1

| Compound | Nav1.1 current amplification rate (%) |
| --- | --- |
| CC1CC=C(c2ccc(=O)n(CC(=O)N3CCc4c(C5CN(C6COC6)C5)cccc43)n2)CC1 (stereo not drawn) [Example 301] | 410% |
| CN(c1cnc2cnn(CC(=O)Nc3ccc4ccccc4n3)c2n1)C1CC1 [Example 717] | 23% |
| CC1CC=C(c2ccc(=O)n(CC(=O)N3CCc4c(C5CCNC5)cccc43)n2)CC1 (stereo not drawn) [Example 268] | 55% |
| CC1CC=C(c2ccc(=O)n(CC(=O)N3CCc4c(-c5cccnc5)cccc43)n2)CC1 (stereo not drawn) [Example 248] | 392% |
| CC1CC=C(c2ccc(=O)n(CC(=O)N3CCc4c(-c5ccn(C)n5)cccc43)n2)CC1 (stereo not drawn) [Example 252] | 254% |
| CC1CC=C(c2ccc(=O)n(CC(=O)Nc3cc4nccn4cn3)n2)CC1 (stereo not drawn) [Example 328] | 58% |
| COCc1nc2cc(NC(=O)Cn3nc(C4=CCC(C)CC4)ccc3=O)ccc2o1 (stereo not drawn) [Example 325] | 233% |

same assay, conditions: Concentration for evaluation 10 μM; HEK293 cell line stably expressing human Nav1.1

| Compound | Nav1.1 current amplification rate (%) |
| --- | --- |
| Cc1ccc(-c2ccc(=O)n(CC(=O)Nc3ccc4ocnc4c3)n2)s1 [Example 455] | 131% |
| COc1cccc2c1CCN2C(=O)Cn1nc(C2=CCC(C)(C)CC2)ccc1=O [Example 431] | 11% |
| N#Cc1ccc(NC(=O)Cn2nc(C3=CCCCC3)ccc2=O)cc1 [Example 39] | 125% |
| CN(c1cnc2cnn(CC(=O)N3CCc4c3cccc4C(F)(F)F)c2n1)C1CC1 [Example 731] | 102% |
| CC1(C)CC=C(c2ccc(=O)n(CC(=O)N3CCN(c4ccccn4)CC3)n2)CC1 [Example 439] | 87% |
| N#Cc1ccc(NC(=O)Cn2nc(N3CCC4(CCC4)C3)ccc2=O)cc1 [Example 34] | 311% |
| COc1cc(=O)n(CC(=O)N2CCN(c3cncc(F)c3)CC2)nc1C1=CCC(C(F)(F)F)CC1 (stereo not drawn) [Example 486] | 148% |
| COc1ncc(C2=CCN(C(=O)Cn3nc(C4=CCC(C)CC4)ccc3=O)CC2)cn1 (stereo not drawn) [Example 400] | 238% |
| CC1CC=C(c2ccc(=O)n(CC(=O)N3CCC(c4cccnc4)CC3)n2)CC1 (stereo not drawn) [Example 262] | 124% |
| COc1cc(C2=CCC(C)CC2)nn(CC(=O)Nc2ccn3ccnc3c2)c1=O (stereo not drawn) [Example 463] | 218% |
| CC1CC=C(c2ccc(=O)n(CC(=O)Nc3ccc(CO)nc3)n2)CC1 (stereo not drawn) [Example 376] | 44% |
| CN(c1cnc2cnn(CC(=O)Nc3cc4ccccc4nn3)c2n1)C1CC1 [Example 727] | 71% |
| N#Cc1ccc(NC(=O)Cn2nc(N3CCC(C(F)(F)F)CC3)ccc2=O)cc1 [Example 10] | 124% |
| COC1CN(c2cccc3c2CCN3C(=O)Cn2nc(C3=CCC(C)(C)CC3)ccc2=O)C1 [Example 434] | 232% |
| N#Cc1ccc(NC(=O)Cn2nc(N3CCCC4(CCC4)C3)ccc2=O)cc1 [Example 33] | 220% |
| CC1CCN(c2ccc(=O)n(CC(=O)Nc3cccc(-c4ncco4)c3)n2)CC1 [Example 78] | 78% |
| Cc1nc2cc(NC(=O)Cn3nc(N4CCC(C)CC4)ccc3=O)ccc2s1 [Example 88] | 183% |
| CC1CC=C(c2ccc(=O)n(CC(=O)N3CCC(c4ccncc4)CC3)n2)CC1 (stereo not drawn) [Example 259] | 71% |

same assay, conditions: Concentration for evaluation 50 μM; HEK293 cell line stably expressing human Nav1.1

| Compound | Nav1.1 current amplification rate (%) |
| --- | --- |
| CC1CC=C(c2ccc(=O)n(CC(=O)N3CCc4c(C=C5CCNCC5)cccc43)n2)CC1 (stereo not drawn) [Example 293] | 55% |
| CC1CC=C(c2ccc(=O)n(CC(=O)N3CCc4nc(-c5cn[nH]c5)ccc43)n2)CC1 (stereo not drawn) [Example 289] | 51% |
| CN(c1cnc2cnn(CC(=O)Nc3cc4ccccc4cn3)c2n1)C1CC1 [Example 718] | 34% |

same assay, conditions: HEK293, Concentration for evaluation 1 μM; HEK293 cell line stably expressing human Nav1.1; read-out: Nav1.1 current amplification rate (%)

| Compound | activation at 1 µM |
| --- | --- |
| O=C(Cn1ncc2ncc(N3CCC4(CC4)C(F)(F)C3)nc21)Nc1ccn2ccnc2c1 [Example 744] | 147% |
| CC1(C)CC=C(c2cnc3cnn(CC(=O)Nc4ccn5ccnc5c4)c3n2)CC1 [Example 737] | 249% |

same assay, conditions: HEK293, Concentration for evaluation 3 μM; HEK293 cell line stably expressing human Nav1.1; read-out: Nav1.1 current amplification rate (%)

| Compound | activation at 3 µM |
| --- | --- |
| Cc1nn(CC(=O)Nc2ccc3ncnn3c2)c2nc(N3CCC4(CCC4)C3)cnc12 [Example 739] | 10% |

same assay, conditions: HEK293, concentration for evaluation 1 μM; HEK293 stably expressing human Nav1.1; read-out: Nav1.1 current amplification rate (%)

| Compound | activation at 1 µM |
| --- | --- |
| CC1CC=C(c2ccc3cnn(CC(=O)N4CCN(c5cccnc5)CC4)c3n2)CC1 (stereo not drawn) [Example 881] | 446% |
| O=C(Cn1ncc2cnc(N3CCC4(CCC4)C3)nc21)Nc1ccn2ccnc2c1 [Example 834] | 26% |
| CN(c1ncc2cnn(CC(=O)Nc3cnc4cccnc4c3)c2n1)C1CC1 [Example 841] | 28% |
| CC1CCN(c2ncc3cnn(CC(=O)Nc4ccc(C#N)cn4)c3n2)CC1(F)F (stereo not drawn) [Example 850] | 79% |
| CN(CC1CCC1)c1ncc2cnn(CC(=O)Nc3cnc4cccnc4c3)c2n1 [Example 846] | 158% |

same assay, conditions: concentration for evaluation 1 μM; HEK293 stably expressing human Nav1.1

| Compound | Nav1.1 current amplification rate (%) |
| --- | --- |
| COc1ccc(NC(=O)Cn2ncc3cnc(N4CCC5(CC5)C(F)(F)C4)nc32)cn1 [Example 825] | 30% |
| O=C(Cn1ncc2ccc(C3=CCCCO3)nc21)Nc1ccn2ccnc2c1 [Example 868] | 19% |
| O=C(Cn1ncc2ccc(C3=CCC(F)(F)CC3)nc21)Nc1ccn2ccnc2c1 [Example 867] | 65% |
| CC1CCN(c2ccc3cnn(CC(=O)Nc4ccn5ccnc5c4)c3n2)CC1 [Example 870] | 120% |
